US20060089335A1, “Compositions and methods for enhancing cognitive function and synaptic plasticity” (priority 2003, published 2006)
“Also recorded” adds a separate entry of the source.

Columns and labels:
[1] = system: recognition memory of 1-year old rats; assay: novel object recognition; conditions: rat, in vivo
Protocol: Behavior test: Novel object recognition. The subjects were 20 experimentally naive, female, Sprague-Dawley rats (Charles River), 1 year old at the beginning of the experiment. They were housed two per cage with continuous access to food and water under a 12:12 light-dark cycle, with light onset at 8:00 a.m. Rats in the Mg^++-treated group received drinking water containing 6 mg/kg/day MgCl2 for 4 months before experiments.
The rats were first habituated to the open-field arena by allowing them to explore it for two daily 15-min sessions. Two identical objects were present in the arenas during habituation sessions; those objects were not used in the subsequent experimental trials. The rat was placed into the arena with two identical sample objects and allowed to explore for 10 min (familiarization phase). For the double-training test, the familiarization phase was repeated with the interval of 10 min. The rat was then removed and the objects were replaced with two new objects; one of the new objects was identical to the sample and the other was a novel object that the rat had never before encountered. The rat was returned to the arena for the retention test and allowed to explore for 5 min (retention test). The retention intervals were 10 min and 24 hours. Rats spent the retention interval in a cage in the colony room. Objects were cleaned thoroughly between trials with 20% ethanol solution to ensure the absence of olfactory cues. The particular objects for a given trial were randomly determined, but each object was used for only one trial per rat.
The criteria for exploration were strictly based on active exploration, in which rats had to be sniffing or touching the object with the nose and/or forepaws. The main dependent measure was the exploration ratio, that is, the proportion of total object-exploration that was spent exploring the novel object (tnovel/[tnovel+tfamiliar]) during the 5-min test phase. To determine whether the rats discriminated between the novel and familiar objects, the exploration ratios obtained under each condition were compared with what would be expected by chance (i.e., a ratio of ˜50%), using one-sample Student's t tests.

[2] = system: NR2B; assay: quantitative Western blotting of hippocampal homogenate; type: in vivo, rat; conditions: rat, in vivo
Protocol: (§1) Quantitative Western blotting. Samples of hippocampal homogenate (10 ug/sample) were resolved on polyacrylamide gels, transferred to PVDF, and probed with anti-NR1 (Chemicon), NR2A (Upstate) or NR2B (Santa Cruz Biotech), GluR1 (Chemicon), Synapsin1 (American Qualex), or PSD-95 (Upstate) antibody followed by the appropriate secondary antibody coupled to horseradish peroxidase (1:10,000, Santa Cruz Biotech) in Tris-buffered saline (pH 7.3) containing 5% dry milk and 0.1% Tween (BioRad). Visualization of immunoreactive bands was achieved by enhanced chemiluminescence (Perkin Elmer Biosciences) and captured on autoradiography film (Kodak Scientific). Standard curves, in which the amount of protein was varied systematically, were constructed to establish that we operated within the linear range of the chemiluminescence detection method. In addition, each immunoblot was exposed to autoradiography film multiple times (average 7; minimum 5) for varying duration to make sure we operated in the linear range of the film for each experiment. Digital images, produced by scanning films on a Epson 3200 Scanner (Epson) with Epson Scan Software (Epson), were quantified using GelPro Analyzer 3.1 software. The integrated optical density (IOD) of each immunoreactive band from hippocampal samples relative to baseline measured immediately above and below the band in the same lane, and normalized by the actin or neurofilament band also in the same lane. Group data (eight animals per group) are represented as the mean+/−SEM of the IOD of samples.

[3] = system: GluR1; assay: as above; type: in vivo, rat; conditions: rat, in vivo, 6 mg/kg/day
Protocol: as §1

[4] = system: cultured hippocampal neurons; assay: control recordings of membrane potential, synaptic inputs and firing; type: cell-based, rat
Protocol: (§2) Electrophysiology. Dual whole cell perforated patch clamp recordings were made on two interconnected cultured hippocampal pyramidal neurons. Perforated patch pipettes were front-filled with a solution containing (in mM): CsOH, 127; D-gluconic acid, 127; CsCl, 4; HEPES, 10; NaCl, 8; EGTA, 0.4; pH was adjusted to 7.25 with CsOH, and then back-filled with the same solution containing […] amphotericin B (Sigma, St. Louis, Mo.). Extracellular solution contained (in mM): NaCl, 145; KCl, 3; glucose, 15; HEPES, 10; MgCl2, 0.8-1.2; CaCl2, 1.2; 0.005 glycine (Sigma), 0.05 picrotoxin (Sigma); pH adjusted to 7.4 with NaOH. MgCl2 concentration was matched to its concentration in culture medium. In experiments where effects of drugs on neuronal activity were quantified (FIG. 4D), recordings were done in culture medium (with HEPES replacing bicarbonate/CO2 to maintain pH). All experiments were performed at room temperature. For assaying synaptic connectivity, each neuron was stimulated by 1 ms step depolarization from −70 to +30 mV in voltage-clamp mode. Only neurons with monosynaptic connections were used. […] Recordings with access resistance>20 MΩ or that varied substantially were rejected from analysis.

[5] = system: cultured hippocampal neurons; assay: field EPSC (fEPSC) recording before and after TBS; type: cell-based, rat
Protocol: as §2
To confirm that such a prominent TBS-induced increase in Pr does contribute to the enhancement of total synaptic strength, the magnitude of potentiation was tested electrophysiologically by sampling field EPSCs (fEPSCs) before and after TBS. The whole cell recording was obtained under perforated patch configuration to avoid wash-out of the intracellular components critical for synaptic plasticity. The membrane potential was clamped at −70 mV and EPSCs were evoked by field stimulation at a sampling frequency of 0.03 Hz. [Mg^2+]o during sampling was 4 mM to reduce background neural activity. The intensity of field stimulation was adjusted to produce a half maximal fEPSC amplitude. After 30 minutes of sampling were employed to determine the baseline level of synaptic strength, the bath solution was changed to 1.2 mM [Mg^2+]o and the recording configuration to current-clamp mode to allow for membrane voltage fluctuations. TBS was delivered at the same amplitude and temporal profiles as for the FM experiments.

[6] = target: NMDA receptors (NR2B-containing) (Rattus norvegicus, UniProt P35439+Q00960); assay: evoked NMDA currents ([…]), double-perforated patch; type: cell-based
Protocol: as §2
We hypothesized that one target may be the number and properties of NMDA receptors at individual synapses.

[7] = system: excitatory and inhibitory terminals

NMDA receptors (NR2B-containing), sequence (Q00960 27-1482, other chains not shown): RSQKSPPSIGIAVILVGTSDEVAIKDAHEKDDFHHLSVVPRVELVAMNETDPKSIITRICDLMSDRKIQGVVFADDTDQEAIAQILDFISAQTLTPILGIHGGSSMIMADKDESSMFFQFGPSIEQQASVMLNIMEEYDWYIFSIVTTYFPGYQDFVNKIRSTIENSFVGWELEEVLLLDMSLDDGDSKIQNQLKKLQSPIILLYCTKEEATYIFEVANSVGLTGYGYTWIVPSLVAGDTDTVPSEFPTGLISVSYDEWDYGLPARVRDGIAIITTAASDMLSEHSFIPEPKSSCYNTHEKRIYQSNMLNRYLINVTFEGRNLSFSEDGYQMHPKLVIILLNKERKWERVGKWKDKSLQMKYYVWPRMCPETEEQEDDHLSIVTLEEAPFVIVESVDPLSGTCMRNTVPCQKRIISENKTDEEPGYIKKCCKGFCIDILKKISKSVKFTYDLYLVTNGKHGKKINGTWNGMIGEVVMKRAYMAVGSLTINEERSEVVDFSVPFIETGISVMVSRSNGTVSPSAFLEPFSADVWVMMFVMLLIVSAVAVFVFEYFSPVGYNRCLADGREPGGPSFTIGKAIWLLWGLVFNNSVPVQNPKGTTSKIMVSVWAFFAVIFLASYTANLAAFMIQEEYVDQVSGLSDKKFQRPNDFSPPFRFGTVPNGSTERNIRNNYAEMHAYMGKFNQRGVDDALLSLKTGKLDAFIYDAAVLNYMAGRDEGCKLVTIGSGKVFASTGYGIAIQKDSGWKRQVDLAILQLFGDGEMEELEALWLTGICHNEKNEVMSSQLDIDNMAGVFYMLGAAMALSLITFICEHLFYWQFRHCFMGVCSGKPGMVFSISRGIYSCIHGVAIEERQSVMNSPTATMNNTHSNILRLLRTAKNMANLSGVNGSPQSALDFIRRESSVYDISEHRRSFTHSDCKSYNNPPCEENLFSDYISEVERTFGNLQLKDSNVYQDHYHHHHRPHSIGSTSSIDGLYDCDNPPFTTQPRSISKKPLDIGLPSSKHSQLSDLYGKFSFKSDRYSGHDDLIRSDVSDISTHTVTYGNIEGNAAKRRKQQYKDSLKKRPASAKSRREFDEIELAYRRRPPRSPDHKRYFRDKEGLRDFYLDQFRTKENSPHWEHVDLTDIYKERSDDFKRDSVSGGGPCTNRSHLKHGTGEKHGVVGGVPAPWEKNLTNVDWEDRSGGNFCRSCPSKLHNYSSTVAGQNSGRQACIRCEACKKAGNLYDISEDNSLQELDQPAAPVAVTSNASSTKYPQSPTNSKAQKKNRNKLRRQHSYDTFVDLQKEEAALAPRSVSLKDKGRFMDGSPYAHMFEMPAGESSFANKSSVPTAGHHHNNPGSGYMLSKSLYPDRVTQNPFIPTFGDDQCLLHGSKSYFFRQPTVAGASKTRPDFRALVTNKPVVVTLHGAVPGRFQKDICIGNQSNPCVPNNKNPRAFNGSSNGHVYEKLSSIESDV

## [Mg+2] [Mg^++]
[1]
  effect on exploratory activity or motivation: no effect on exploratory activity or motivation
  exploratory preference towards the novel object, short-term and long-term memory trials: significant exploratory preference towards the novel object
  preference to the novel object, long-term: 60%
  preference to the novel object, short-term memory test: 75%
  preference towards the novel object, long-term memory test: retained the same level of preference for 24 hours; also recorded: significant exploratory preference towards the novel object in long-term memory trials
  total time exploring both identical objects during training: 24.1 ± 2.5 s
[2]
  increase in levels of NR2B protein: two-fold increase
[2]; 6 mg/kg/day
  increase in amount of NR2B: approximately 60%
[3]
  increase in amount of GluR1: approximately 60%
[4]
  EPSC1.2/EPSC0.8, overall synaptic inputs during network activity: 1.03±0.1
  EPSP1.2/EPSP0.8, spontaneous miniature EPSPAMPAs: 0.9±0.1
  change in average firing rates of neurons within cultured neural networks: none of these treatments induces a significant change
[5]
  TBS-induced increase in fEPSC amplitude: 2.7 fold
  duration of fEPSC increase: at least 1.5 hours
  fEPSC2/fEPSC1: 2.7±0.6
  increase of synaptic strength after TBS induction, average: 2.7 fold
  time to maximum of fEPSC increase after TBS: ~10 min
[6]
  N/A ratio (GNMDA/GAMPA): increased significantly
  change in EPSCNMDA decay: 2 fold
  ifenprodil-sensitivity of EPSCNMDA in treated versus control cultures: much higher than in the controls
  increase of quantal charge transfer through NMDARs (QNMDA): 2.4 fold
[7]
  increase of synaptic density: ~30%
  neuronal density and morphology: normal neuronal density and morphology
